From US20240180887A1, “USE OF PPAR(gamma) AGONISTS OR MPC INHIBITORS FOR TREATING PRIMARY, INNATE DISEASES OF THE CARDIAC MUSCLE (CARDIOMYOPATHIES)” (PREVENTAGE THERAPEUTICS GMBH, priority 2021, published 2024)
“Also recorded” adds a separate entry of the source.

What was measured:
[1] = tested on: radical oxygen species (ROS); assay: Radical oxygen species (ROS) in left ventricular myocardium by electron paramagnetic resonance spectroscopy; assay type: in vivo, mouse; conditions: αMHC^719/+ mice treated with pioglitazone vs untreated HCM mice, 6 weeks, p=0.053
Excerpt: Reduction of oxidative stress: The treatment with PPARγ agonists leads to reduced expression of hypoxia-inducible factor 1-alpha, a major transcription factor in the redox signaling pathway. As a result, less radical oxygen species are produced in the left ventricular myocardium, thereby reducing cellular oxidative stress. A protective effect on the pathological remodeling of the cardiac muscle was observed.
Electron paramagnetic resonance (EPR) was applied as described in order to calculate the production of radical oxygen species (ROS) in the left ventricular myocardium^46-48. […] The analysis of ROS generation was carried out at 37° C. for 10 minutes with 20 scans in an Escan EPR spectrometer under temperature control (Noxygen) and the following parameters: microwave power 23.89 mW; center field 3459-3466 G; steep width 10 G, frequency 9.7690 GHz and modulation amplitude 2.93 G. ROS generation was calculated by means of linear regression and normalized to the cellular protein content.

[2] = tested on: Acta1, Col1a1, Col1a2, Cyba, Gdf15, Hif1a, Icam1, IL33, Mmp2, Nfkb1, Nox4, Nppa, Postn, Tgfb1, Tgfb2, Tgfb3; assay: mRNA expression of pro-hypertrophic, pro-fibrotic and pro-inflammatory genes in left ventricular myocardium (RNA sequencing); assay type: in vivo, mouse; conditions: αMHC^719/+ mice treated with pioglitazone vs untreated, p<0.001
Procedure: FIG. 8 The mRNA expression of pro-hypertrophic, pro-fibrotic, and pro-inflammatory genes such as Acta1, Col1a1, Col1a2, Cyba, Gdf15, Hif1a, Icam1, IL33, Mmp2, Nfkb1, Nox4, Nppa, Postn, Tgfb1, Tgfb2, and Tgfb3 is increased in the left ventricular myocardium of αMHC^719/+ HCM mice (HET) compared to wild-type mice (WT) (HET/WT). […] Strand-specific, polyA-enriched RNA sequencing was carried out as described above^51. The RNA was isolated using the AllPrep RNA Kit (Qiagen). The RNA integrity number (RIN) was determined using the Agilent 2100 BioAnalyzer (RNA 6000 Nano Kit, Agilent). In order to prepare the library, 1 μg RNA was poly(A)-selected, fragmented, and reverse-transcribed with the Elute, Prime, Fragment Mix (Illumina). […] RNA libraries were tested for quality and quantity using the Agilent 2100 BioAnalyzer and the Quant-iT PicoGreen dsDNA Assay Kit (Life Technologies). […] The STAR Aligner (version 2.4.2a)^52 with modified parameter settings (--twopassMode=Basic) was used for the split-read alignment against the […] genome assembly hg19 (GRCh37) and the UCSC knownGene annotation. HTseq-count (version 0.6.0)^53 was used to quantify the number of reads mapped to annotated genes. FPKM values (fragments per kilobase of transcript per million fragments mapped) were calculated using custom scripts. […]

[3] = tested on: αMHC^719/+ HCM mouse model; assay: Preclinical αMHC^719/+ HCM mouse model, overall summary of results; assay type: in vivo; conditions: oral administration in the αMHC^719/+ HCM mouse model
Procedure: The examinations were carried out on an established HCM mouse model, in which an arginine-to-tryptophan mutation at position 719 of the heavy chain of the cardiac mouse alpha-myosin gene was effected by homologous recombination (referred to as αMHC^719/+)^38. Such genetically modified mice increasingly develop the typical pathognomonic disease characteristics of hypertrophic cardiomyopathy such as myocardial hypertrophy and fibrosis with increasing age. The phenotype of this genetically generated HCM mouse model thus simulates the phenotype of HCM patients affected^36,37,38. The manifestation of the disease can be accelerated by subcutaneous administration of the calcineurin inhibitor cyclosporin A (CsA)^9.
Between their 6th and 12th postnatal week, all mice were injected subcutaneously with cyclosporin A (CsA) to accelerate hypertrophic remodeling in the myocardium in the HCM mouse model^9. Half of the mice were treated with the PPARγ agonists rosiglitazone and pioglitazone from the group of thiazolidinediones between their 6th and 12th postnatal week. In their 12th postnatal week, they were subjected to in vivo transthoracic echocardiography. The animals were then euthanized for ex vivo examination (organ removal, histopathology, and determination of radical oxygen species, of mRNA and protein expression in the tissue) (see FIG. 10).D

cardiac myosin = assay: Mant-ATP assay of left ventricular cardiac myosins (DRX vs SRX state); assay type: in vivo, mouse; conditions: αMHC^719/+ mice treated with pioglitazone vs untreated αMHC^719/+ mice
Excerpt: FIG. 5 Examination of the percentages of left ventricular cardiac myosins in the DRX (disordered relaxation) compared to the SRX (super-relaxed) state using a fluorescent ATP analog. […] The treatment of the HCM mouse model with pioglitazone thus also has a positive effect on the functional properties of the left ventricular heart muscle tissue. The results of this Mant-ATP assay indicate that it was possible to prevent the changes in the biophysical properties of the myosins, which are described as being the cause of hypertrophic cardiomyopathy, in the mice treated with pioglitazone.
Cardiac myosin ATPase activity was measured by Mant-ATP assay, which examines cardiomyocyte contractility and relaxation indirectly by measuring the activity of cardiac myosin ATPase. For this purpose, the Mant-ATP assay (Roche) was applied in the left ventricular myocardium of the different mouse groups, which was shock-frosted in liquid nitrogen and stored in frozen state at −80° C. Mant-ATP is a fluorescent, […] ATP that binds the head of the cardiac myosin. The assay measures the release of Mant-ATP after addition of ATP^44,45.

HCM mice (αMHC^719/+) [4] = assay: Histopathology of left ventricular myocardium, Masson's trichrome (myocardial fibrosis), experimental setup A; assay type: in vivo, mouse
Excerpt: FIG. 6 Histopathology of the left ventricular myocardium of wild-type (WT) and HCM mice (αMHC^719/+) with and without treatment with pioglitazone (PIO) after 6 weeks; myocardial fibrosis appears in medium gray in the Masson's trichrome-stained histological sections. […] HCM mice show massive myocardial fibrosis (white arrows in (C)).
In order to quantify myocardial fibrosis, the removed hearts were fixed in 4% paraformaldehyde, dehydrated, and placed in paraffin, as described above^37,42,43. 5-μm sections were stained with Masson's trichrome and hematoxylin-eosin. The extent of myocardial fibrosis was quantified by a digitized method by calculating the percentage of cardiac muscle portions stained blue with Masson's trichrome in relation to the overall stained cardiac muscle. Perivascular and intramurine structures, the endocardium, or trabeculas were excluded in the calculation of the percentage of fibrosis.

HCM mice (αMHC^719/+) [5] = assay: Heart-to-body weight ratio ex vivo after organ removal; assay type: in vivo, mouse; conditions: αMHC^719/+ mice, pioglitazone 10 mg/kg of body weight/day orally, 6 weeks, vs untreated αMHC^719/+ mice, p=0.008
Procedure: The mice were weighed and euthanized to calculate the heart-to-body weight ratio. The thorax was opened quickly, and the heart was removed and washed twice in cold PBS solution. The large vessels and connective tissue were removed, the heart was swapped dry and weighed, and the heart and body weight of the mouse were determined.

## CCc1ccc(CCOc2ccc(CC3SC(=O)NC3=O)cc2)nc1 (racemic) [pioglitazone, (RS)-5-{p-[2-(5-ethyl-2-pyridyl)ethoxy]benzyl}-2,4-thiazolidinedione]
[1]
  production of radical oxygen species in the left ventricular myocardium: significantly decreased
[1]; listed as poglitazone
  production of radical oxygen species in the left ventricular myocardium: significantly reduced
[2]
  overexpression of pro-hypertrophic, pro-fibrotic and pro-inflammatory genes (HET+PIO/HET): significantly reduced or completely prevented; also recorded: prevents
[3]
  changes in biophysical properties in the heart muscle cell and onset of myocardial hypertrophy and fibrosis: largely prevents
Cardiac myosin
  percentages of left ventricular cardiac myosins in the DRX compared to the SRX state: significant shift towards the SRX state; also recorded: prevents the functional biophysical changes
HCM mice (αMHC^719/+) [4]; wild-type mice with treatment with pioglitazone, 6 weeks
  myocardial fibrosis in wild-type mice: hardly any fibrosis
HCM mice (αMHC^719/+) [4]; αMHC^719/+ mice, pioglitazone 10 mg/kg of body weight/day orally, 6 weeks
  formation of myocardial fibrosis (histological sections): almost completely prevents the formation of myocardial fibrosis
HCM mice (αMHC^719/+) [4]; αMHC^719/+ mice, pioglitazone 10 mg/kg/day orally vs untreated HCM mice, p=0.017
  fibrosis after semi-automated threshold detection of collagen (ImageJ): significantly less fibrosis
HCM mice (αMHC^719/+) [5]
  development of myocardial hypertrophy (heart-to-body weight ratio ex vivo): completely inhibited
